Tests used:
Format in all cases: cell-based, mouse
[1] = tested on: HD1B cells; experiment: Mitochondrial membrane potential assay (JC1) in HD1A and HD1B cells; conditions: for mitochondrial membrane potential (JC-1 staining): NAC 100 μM or Tempol 10 μM overnight
Description: (§1) HD1A and HD1B cells were grown in 24-well plates to the desired confluence. Cells were treated with solvent (DMSO, 0.1%), rapamycin (40 nM), or PP242 (40 nM) for 1 hour, or NAC (100 μM, Sigma-Aldrich), or Tempol (10 μM, Sigma-Aldrich) overnight. Treated cells were replaced with the pre-warmed (37° C.) medium containing JC1 (5 μM, Molecular Probes) for 1 hour. Labeled cells were replaced with fresh medium and examined under the Nikon inverted fluorescence microscope.

[2] = tested on: HD1B cells; experiment: ROS measurement by flow cytometry in HD1A and HD1B cells; conditions: 40 nM, 60 minutes
Description: HD1A and HD1B cells were treated with solvent, rapamycin (40 nM), or PP242 (40 nM) for 60 minutes. Cells were washed and stained with 2 μM of 2′,7′-dichlorodihydrofluorescein diacetate stained (DCFDA, Invitrogen) which is nonfluorescent until the acetate group is removed by intracellular esterases and oxidation occurs within the cell (Invitrogen). The incubation was at 37° C. for 20 minutes, followed by washing with cold PBS. The ROS level was measured by flow cytometry.

[3] = tested on: mTOR signaling pathway; experiment: Western blot of mTOR downstream effector S6 phosphorylation in HD1A and HD1B cells
Description: HD1A and HD1B cells were lysed in the Cell Lytic M mammalian cell lysis/extraction buffer (Sigma-Aldrich) according to the manufacturer's instruction. Protein samples were fractionated on a Novex 4-20% Tris-Glycine Mini Gel (Invitrogen). After transferring to the polyvinylidene difluoride membrane (Bio-Rad), the membrane was blotted with 5% nonfat dry milk in 1×PBS, and incubated with rabbit anti-p-S6 (Ser235/236), anti-S6, anti-p-Drp1 (Ser616), anti-Drp1, and anti-actin primary antibodies (from Cell Signaling), or rat anti-LAMP1, rabbit anti-Opa1 antibodies (from Santa Cruz). Following incubation with the secondary antibody that conjugated with horse radish peroxidase, proteins were visualized with chemiluminescent substrate (Thermo Scientific) under ChemiDox MP Image System.
as §1

| Structure (SMILES) | mitochondrial membrane potential (JC-1 staining) [1] | ROS production [2] | mTOR downstream effector S6 phosphorylation [3] | mitochondrial membrane potential (JC1 staining) ([1]; mTOR inhibitor 40 nM, 1 hour) |
| --- | --- | --- | --- | --- |
| CC(=O)N[C@@H](CS)C(=O)O [NAC] | partially improved the condition of the mitochondrial membrane potential |  |  |  |
| CC(C)n1nc(-c2cc3cc(O)ccc3[nH]2)c2c(N)ncnc21 [PP242] |  | decreased ROS production | blocked mTOR downstream effector S6 phosphorylation | reversed the damaged mitochondrial membrane potential |
| CC1(C)CC(O)CC(C)(C)N1[O] [TEMPOL] | partially improved the condition of the mitochondrial membrane potential |  |  |  |
